pIC50: −log10 of the molar value. Bridge positions count the residues as written; N and C are the ends. Square brackets hold non-standard residues; d marks the D form. Ends that are not written are not given here. Peptide text beside a SMILES is read from it. * marks the point of attachment. Palmitoyl = CCCCCCCCCCCCCCCC(=O)*; hArg = N=C(N)NCCCC[C@H](N)C(=O)O; Mpa = O=C(O)CCS
Columns and labels:
[1] = molecular target: T1, protease-activated receptor type 4 (PAR4) (Homo sapiens, UniProt Q96RI0); settings: abstract of Lee et al. 2001; cited from earlier work
T1 construct: host or cells: platelets
T1 sequence (Q96RI0 18-385): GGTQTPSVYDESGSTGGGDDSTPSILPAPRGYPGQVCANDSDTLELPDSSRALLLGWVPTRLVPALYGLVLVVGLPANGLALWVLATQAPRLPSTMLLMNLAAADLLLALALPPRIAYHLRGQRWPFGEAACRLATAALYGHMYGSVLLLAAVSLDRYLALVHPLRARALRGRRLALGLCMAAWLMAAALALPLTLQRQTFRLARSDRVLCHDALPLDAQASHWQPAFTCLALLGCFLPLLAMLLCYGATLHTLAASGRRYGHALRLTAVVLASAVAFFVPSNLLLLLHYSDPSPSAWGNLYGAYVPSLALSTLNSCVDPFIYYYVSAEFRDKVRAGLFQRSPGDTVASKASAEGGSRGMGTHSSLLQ

PAR4 [2] = molecular target: T2, PAR4 (Homo sapiens, UniProt Q96RI0); assay: PAC-1 binding assay, platelets stimulated with γ-thrombin; format: cell-based; settings: stimulation with 316 nM γ-thrombin; compound concentration not given
T2 construct: 60 μL of washed platelets (Tyrodes buffer containing 0.1% BSA); endogenous in cells; host or cells: washed platelets
T2 sequence (Q96RI0 18-385): T1 sequence (Q96RI0 18-385)
Description: Gamma-thrombin is a proteolytic product of alpha-thrombin cleavage by a serine protease. Cleavage results in the disruption of exosite I which interacts directly with the hirudin-like domain of its primary substrates fibrinogen and protease-activated receptor 1 (PAR1). As a result, gamma-thrombin selectively cleaves PAR4 in the nanomolar range, leaving PAR1 intact. See Soslau, G., Class, R., Morgan, D. A., Foster, C., Lord, S. T., Marchese, P., and Ruggeri, Z. M. (2001) Unique pathway of thrombin-induced platelet aggregation mediated by glycoprotein Ib, The Journal of biological chemistry 276, 21173-21183. Gamma-thrombin (Enzyme Research Laboratories, South Bend, Ind.) is produced by trypsin-sepharose cleavage of alpha-thrombin. To neutralize alpha-thrombin contamination, stock solutions of gamma-thrombin are preincubated with 1 unit/mL hirudin prior 100 fold dilution into the sample for platelet stimulation. This concentration of hirudin is capable of abolishing alpha-thrombin activity with no effect on the activity of gamma-thrombin. See Soslau, G., Goldenberg, S. J., Class, R., and Jameson, B. (2004) Differential activation and inhibition of human platelet thrombin receptors by structurally distinct alpha-, beta- and gamma-thrombin, Platelets 15, 155-166. Single point screens and concentration response curves are conducted with 316 nanomolar or 100 nanomolar gamma-thrombin using PAC1 and CD61p binding.
(§1) PAC-1 Binding assay: 60 μL of washed platelets (Tyrodes buffer containing 0.1% BSA) at a concentration of 0.15×10^8 platelets/mL were added to 5 mL round bottom polystyrene tubes (BD, Franklin Lakes, N.J.). FITC conjugated PAC-1 (BD Biosciences, San Jose, Calif.) antibody was diluted (to the manufacturers recommended concentration) in Tyrode's buffer containing 0.1% BSA. 40 μL of diluted antibody was added to the platelets and allowed to incubate for 5 minutes. Platelets were pre-treated with indicated concentrations of antagonist or DMSO control for 5 minutes followed by addition of PAR-1-AP (GL Biochem, Shanghai, China) or PAR-4-AP for 10 minutes. Platelet activity was quenched by the addition ice cold 1.5% paraformaldehyde followed by dilution in 1× phosphate buffered saline. The final DMSO concentration was 0.5%. Platelets were stored up to 18 hours at 4° C. before flow cytometric analysis. Analysis was carried out on a BD FACS Canto II (Franklin Lakes, N.J.). Fluorescent intensity was determined for 100,000 events within the platelet gate. Data was collected and analyzed via FACS DiVa software. Flow cytometric data analysis was conducted by the following method. The DMSO-vehicle treated control was subtracted from each data point. 100% response for PAR-4-AP was determined for each individual as the DMSO treated control stimulated with either 200 μM PAR-4-AP, or 20 μM PAR-1-AP. Data was plotted in GraphPad PRISM v.5.0. For compounds with a notable reduction in PAC-1 binding response, a dose response curves and subsequent IC50 values were generated using the inhibitory sigmoidal dose response ‘variable slope’ parameter. PAR-4 results were plotted as mean±SEM.

PAR4 [3] = molecular target: T2, PAR4; assay: PAC-1 binding assay, washed platelets stimulated with PAR-4-AP (flow cytometry); format: cell-based; settings: PAR-4-AP stimulation, dose response curve
Procedure: as §1

PAR4 [4] = molecular target: T3, PAR4 (Rattus norvegicus, UniProt Q920E0); settings: rat myocardial ischemia/reperfusion; cited from earlier work
T3 construct: host or cells: rat, in vivo
T3 sequence (Q920E0 17-395): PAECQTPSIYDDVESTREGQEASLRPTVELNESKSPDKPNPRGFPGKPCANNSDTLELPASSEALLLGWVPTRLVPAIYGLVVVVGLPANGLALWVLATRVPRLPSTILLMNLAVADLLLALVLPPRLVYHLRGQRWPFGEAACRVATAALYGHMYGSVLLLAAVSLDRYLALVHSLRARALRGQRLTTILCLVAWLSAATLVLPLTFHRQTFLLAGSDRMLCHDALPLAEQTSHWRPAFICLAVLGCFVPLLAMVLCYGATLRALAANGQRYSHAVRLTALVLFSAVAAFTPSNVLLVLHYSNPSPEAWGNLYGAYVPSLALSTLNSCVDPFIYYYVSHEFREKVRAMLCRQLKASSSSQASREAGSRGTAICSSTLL

PAR4 [5] = molecular target: T4, PAR4 (Mus musculus, UniProt O88634); settings: cited from earlier work
T4 construct: PAR4-AP, or Trypsin injected pleural cavities of mice; host or cells: mouse, in vivo
T4 sequence (O88634 17-396): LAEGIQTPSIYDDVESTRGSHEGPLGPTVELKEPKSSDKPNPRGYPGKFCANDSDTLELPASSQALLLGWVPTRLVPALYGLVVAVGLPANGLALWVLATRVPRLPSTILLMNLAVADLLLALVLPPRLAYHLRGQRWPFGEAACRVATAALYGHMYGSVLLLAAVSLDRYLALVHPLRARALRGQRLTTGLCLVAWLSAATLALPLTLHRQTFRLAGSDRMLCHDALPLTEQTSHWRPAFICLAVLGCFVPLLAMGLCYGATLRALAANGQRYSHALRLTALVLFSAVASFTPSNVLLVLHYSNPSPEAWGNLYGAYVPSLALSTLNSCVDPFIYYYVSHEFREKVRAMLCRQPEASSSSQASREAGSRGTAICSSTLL

influenza viruses = settings: mice treated with GPIIbIIIa antagonist; cited from earlier work
PAR1 [6] = molecular target: T5, PAR1 (Homo sapiens, UniProt P25116); settings: cited from earlier work
T5 construct: host or cells: patients, in vivo
T5 sequence (P25116 22-425): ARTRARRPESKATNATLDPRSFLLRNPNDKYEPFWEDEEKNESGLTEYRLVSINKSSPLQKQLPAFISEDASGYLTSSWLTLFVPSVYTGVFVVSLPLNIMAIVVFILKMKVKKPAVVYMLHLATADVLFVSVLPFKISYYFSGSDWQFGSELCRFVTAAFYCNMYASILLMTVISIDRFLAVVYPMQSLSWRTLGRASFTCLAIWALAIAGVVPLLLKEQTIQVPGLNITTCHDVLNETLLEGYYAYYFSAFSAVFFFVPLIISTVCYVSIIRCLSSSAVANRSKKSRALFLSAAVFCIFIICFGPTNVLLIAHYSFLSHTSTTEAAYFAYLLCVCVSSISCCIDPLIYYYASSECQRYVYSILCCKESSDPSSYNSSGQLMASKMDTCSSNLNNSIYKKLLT

PAR1 [7] = molecular target: T5, PAR1; settings: cited from earlier work; remark: listed apart in the source
PAR4 [8] = molecular target: T3, PAR4; settings: rat hindpaw, carrageenan; cited from earlier work
[9] = non-ST-segment ACS patients undergoing CABG
[10] = non-ST-segment elevation ACS patients
[11] = patients with myocardial infarction, added to standard anti-platelet therapy
[12] = patients with peripheral artery disease
[13] = patients with prior ischemic stroke, added to standard of care

Molecule: CCOC(=O)c1ccc(-c2nn(Cc3ccccc3)c3ccccc23)cc1
- inhibition of PAR4-dependent platelet activation [1]: selective and potent inhibitor

Molecule: COC(=O)c1[nH]c2ccc(OC(F)(F)F)cc2c1-c1cn2nc(OC)sc2n1 [Example B1, Methyl 3-(2-methoxyimidazo[2,1-b][1,3,4]thiadiazol-6-yl)-5-(trifluoromethoxy)-1H-indole-2-carboxylate]
- γ-thrombin % Max PAC-1 binding (316 nM) (PAR4 [2]): 100%
- pIC50 (PAR4 [3]): 5.68

Molecule: COc1nn2cc(-c3sc(-c4ccccc4)nc3C)nc2s1 [Example B6]
- γ-thrombin % Max PAC-1 binding (316 nM) (PAR4 [2]): 92%
- pIC50 (PAR4 [3]): 7.16

Molecule: trans-cinnamoyl-YPGKF [tcY-NH2]
- infarct size (PAR4 [4]): reduced infarct size
- neutrophil migration (PAR4 [5]; CXCL8, carrageenan, PAR4-AP or Trypsin injected pleural cavities of mice): inhibit neutrophil migration
- eosinophil recruitment (PAR4 [5]; after intrapleural injection of Eotaxin-1): blocks eosinophil recruitment

Molecule: COc1nn2cc(-c3nccs3)nc2s1 [Example B7]
- γ-thrombin % Max PAC-1 binding (316 nM) (PAR4 [2]): 98%

Molecule: N=C(N)NCCCC[C@@H]1NC(=O)CCSSC[C@@H](C(N)=O)NC(=O)[C@@H]2CCCN2C(=O)[C@H](Cc2c[nH]c3ccccc23)NC(=O)[C@H](CC(=O)O)NC(=O)CNC1=O [eptifibatide] ([Mpa][hArg]GDWPC-NH2; disulfide 1-7)
- protection from death caused by influenza viruses (influenza viruses): had the same effect

Molecule: COc1nn2cc(-c3ccc(-c4ccccc4)s3)nc2s1 [Example B8, 2-Methoxy-6-(5-phenylthiophen-2-yl)imidazo[2,1-b][1,3,4]thiadiazole]
- γ-thrombin % Max PAC-1 binding (316 nM) (PAR4 [2]): 78%
- pIC50 (PAR4 [3]): 8.13

Molecule: CCOC(=O)N[C@@H]1CC[C@@H]2[C@@H](C1)C[C@H]1C(=O)O[C@H](C)[C@H]1[C@H]2/C=C/c1ccc(-c2cccc(F)c2)cn1 [Vorapaxar]
- ischemic events (PAR1 [6]; [9]): significant reduction
- major CABG-related bleeding (PAR1 [6]; [9]): no significant increase
- primary composite endpoint (PAR1 [6]; [10]): did not significantly reduce
- risk of major bleeding, including intracranial hemorrhage (PAR1 [6]; [10]): significant increase
- moderate to severe bleeding (PAR1 [7]; [11]): significant increase
- risk of cardiovascular death or ischaemic events (PAR1 [7]; [11]): reduced the risk
- limb ischemia and peripheral revascularization (PAR1 [7]; [12]): significant beneficial effects
- risk of bleeding (PAR1 [7]; [12]): increased risk of bleeding
- major vascular events (PAR1 [7]; [13]): without improvement
- risk of intracranial hemorrhage (PAR1 [7]; [13]): increased the risk

Molecule: COc1nn2cc(-c3cnn(-c4ccccc4)c3C)nc2s1 [Example B5]
- γ-thrombin % Max PAC-1 binding (316 nM) (PAR4 [2]): 95%
- pIC50 (PAR4 [3]): 5.82

Molecule: COc1nn2cc(-c3cc(-c4ccc(Cl)cc4)no3)nc2s1 [Example B2]
- γ-thrombin % Max PAC-1 binding (316 nM) (PAR4 [2]): 94%
- pIC50 (PAR4 [3]): 5.71

Molecule: COc1nn2cc(-c3c(-c4ccccc4)noc3C)nc2s1 [Example B4]
- γ-thrombin % Max PAC-1 binding (316 nM) (PAR4 [2]): 93%

Molecule: COc1nn2cc(-c3csc4ccccc34)nc2s1 [Example B3]
- γ-thrombin % Max PAC-1 binding (316 nM) (PAR4 [2]): 99%
- pIC50 (PAR4 [3]): 6.34

Molecule: palmitoly-SGRRYGHALR (Palmitoyl-SGRRYGHALR) [palmitoylated peptide named beside P4pal-10 in the carrageenan model]
- edema and granulocyte recruitment (PAR4 [8]): reduced edema and granulocyte recruitment

Source: patent US9963466B2, “Substituted 5-membered heterocyclic analogs as protease activated receptor 4 (PAR-4) antagonists” (Vanderbilt University, priority 2016, dated 2018)
